Measurements from the supplement of paper PMC8882468.

Experiments:
Test in all cases: CTG-3D luminescence at 96 h relative to day-0 seeding control (ratio to day 0); higher = more growth / less cytotoxicity; PDxO 3D drug screen, 96 h, CTG-3D normalised to day-0 seeding control.
[1] = system: MDA-MB-231
[2] = system: HCI-005.E2 (organoid from a breast cancer xenograft with a HER2-positive history)
[3] = system: HCI-016 (organoid from a triple-negative breast cancer xenograft)
[4] = system: HCI-008 (organoid from a HER2-enriched breast cancer xenograft)
[5] = system: HCI-017.E2 (organoid from an ER-positive breast cancer xenograft)
[6] = system: HCI-025 (organoid from a breast cancer xenograft)
[7] = system: HCI-019 (organoid from a triple-negative breast cancer xenograft)

CN(Cc1cnc2nc(N)nc(N)c2n1)c1ccc(C(=O)N[C@@H](CCC(=O)O)C(=O)O)cc1 [methotrexate]
CTG-3D luminescence at 96 h
Details | 12.5 pM | 0.00025 µM | 0.005 µM | 0.1 µM | 1 µM | 10 µM | 100 µM | 625 fM
[1] | 4.34 | 4.29 | 4.44 | 4.37 | 2.63 | 2.29 | 2.66 | 4.36
[2] | 2.09 | 1.81 | 1.86 | 1.02 | 0.572 | 0.678 | 0.678 | 2.1
[5] | 2.07 | 2.19 | 2.14 | 2 | 2.22 | 2.19 | 2.15 | 2.05

CTG-3D luminescence at 96 h
Details | 12.5 pM | 0.00025 µM | 0.005 µM | 0.1 µM | 1 µM | 10 µM | 100 µM | 625 fM
[3], days in culture: 153 | 3.33 | 1.65 | 2.64 | 1.65 | 1.9 | 2.08 | 1.39 | 2.86
[3], days in culture: 172 | 2.17 | 1.68 | 1.56 | 1.51 | 1.49 | 1.25 | 1.41 | 1.71
[3], days in culture: 190 | 1.69 | 1.3 | 1.7 | 0.906 | 1.08 | 1.21 | 1.52 | 0.969
[3], days in culture: 199 | 1.57 | 1.47 | 1.56 | 1.47 | 1.53 | 1.37 | 1.26 | 1.73
[4], days in culture: 228 | 1.82 | 1.9 | 1.53 | 1.98 | 1.97 | 1.82 | 1.2 | 2.01
[4], days in culture: 244 | 1.4 | 1.83 | 1.93 | 2.13 | 1.59 | 1.93 | 1.66 | 2.31
[5], days in culture: 85 | 2.97 | 2.49 | 2.7 | 2.26 | 2.43 | 2.05 | 2.13 | 2.34
[6], days in culture: 172 | 2.75 | 2.07 | 3.51 | 1.47 | 1.98 | 1.22 | 1.02 | 2.55
[6], days in culture: 209 | 1.86 | 1.56 | 2.06 | 0.982 | 1.3 | 0.947 | 0.76 | 1.49
[6], days in culture: 218 | 1.83 | 2 | 2 | 1.06 | 0.978 | 1.26 | 0.754 | 1.76
[7], days in culture: 110 | 2.05 | 1.69 | 1.69 | 1.92 | 1.17 | 1.54 | 1.35 | 2.13
[7], days in culture: 131 | 2.79 | 3.21 | 2.83 | 2.59 | 2.04 | 2.25 | 2.11 | 3.85
[7], days in culture: 152 | 2.67 | 2.23 | 2.89 | 2.1 | 2.27 | 2.28 | 2.16 | 2.17

CC(C)n1nc(-c2ccc3oc(N)nc3c2)c2c(N)ncnc21 [sapanisertib]
CTG-3D luminescence at 96 h
Details | 12.5 pM | 0.00025 µM | 0.005 µM | 0.1 µM | 1 µM | 10 µM | 100 µM | 625 fM
[1] | 4.45 | 4.42 | 4.45 | 2.89 | 2.2 | 1.22 | 0.518 | 4.61
[2] | 2.06 | 2.01 | 1.9 | 0.62 | 0.362 | 0.282 | 0.0263 | 1.56
[5] | 1.69 | 2.18 | 1.703 | 0.694 | 0.493 | 0.251 | 0.126 | 2.02

CTG-3D luminescence at 96 h
Details | 12.5 pM | 0.00025 µM | 0.005 µM | 0.1 µM | 1 µM | 10 µM | 100 µM | 625 fM
[3], days in culture: 153 | 2.9 | 1.03 | 2.18 | 0.842 | 0.922 | 0.411 | 0.0999 | 3.03
[3], days in culture: 172 | 1.87 | 2.06 | 1.85 | 0.699 | 0.584 | 0.407 | 0.191 | 1.68
[3], days in culture: 190 | 1.66 | 1.47 | 1.49 | 0.534 | 0.464 | 0.421 | 0.149 | 1.23
[3], days in culture: 199 | 1.5 | 1.27 | 1.33 | 0.585 | 0.511 | 0.374 | 0.119 | 1.63
[4], days in culture: 228 | 1.63 | 1.78 | 0.85 | 0.502 | 0.33 | 0.185 | 0.0307 | 1.78
[4], days in culture: 244 | 1.15 | 1.75 | 1.82 | 0.854 | 0.511 | 0.267 | 0.0296 | 2.11
[5], days in culture: 85 | 2.96 | 2.53 | 2.39 | 0.979 | 0.43 | 0.202 | 0.141 | 2.59
[6], days in culture: 172 | 2.78 | 1.04 | 1.61 | 0.407 | 0.372 | 0.145 | 0.00492 | 2.01
[6], days in culture: 209 | 1.39 | 2.18 | 1.62 | 0.44 | 0.256 | 0.217 | 0.0409 | 1.33
[6], days in culture: 218 | 1.85 | 2.15 | 1.44 | 0.421 | 0.231 | 0.291 | 0.0278 | 1.99
[7], days in culture: 110 | 1.88 | 1.46 | 1.02 | 0.781 | 0.409 | 0.493 | 0.0143 | 2.26
[7], days in culture: 131 | 2.52 | 3.19 | 3.17 | 1.21 | 0.676 | 0.681 | 0.0207 | 3.58
[7], days in culture: 152 | 4.18 | 3.66 | 2.71 | 0.969 | 0.811 | 0.616 | 0.0357 | 2.12
